Patent publication US20210023065A1, “AMPHIPHILIC THIOL COMPOUNDS AND USES THEREOF” (THE REGENTS OF THE UNIVERSITY OF CALIFORNIA, priority 2018, published 2021)

What was measured:
endogenous HRas = target: T1, endogenous HRas (Homo sapiens, UniProt P01112); assay: Acyl resin-assisted capture detection of HRas palmitoylation in HeLa cells; format: cell-based; details: HeLa cells
T1 construct: endogenous in cells; host or cells: HeLa
Procedure: HeLa cells were grown to confluency in 10 cm plates. Stock solutions of compounds were prepared in DMSO as before and diluted to the final indicated concentration in 5.5 mL of OptiMEM media before adding to cells. Cells were incubated at 37° C. for 20 min and then media removed and 3 mL of HBSS added to each plate. Cells were detached using a cell scraper, pelleted by centrifugation at 1,000 rcf for 5 min and the pellet processed using a CAPTUREome S-Palmitoylated Protein Kit (Badrilla, UK) according to the manufacturer's protocol. Samples were resolved by electrophoresis using 4-20% SDS-polyacrylamide gels (Bio-Rad) under denaturing and reducing conditions. Proteins were then electrotransferred to a PVDF membrane (Bio-Rad). The membrane was blocked with 3% BSA and then subjected to immunoblot analysis using Anti-GTPase HRAS antibody (ab97488) (Abcam), Calnexin Antibody (2433S) (Cell Signaling Technology), Gα(i) Antibody (5290S) (Cell Signaling Technology), SNAP25 Antibody (5308S) (Cell Signaling Technology), Flotillin-2 Antibody (3436S) (Cell Signaling Technology), CD44 Antibody (3570S) (Cell Signaling Technology), Lyric/Metadherin Antibody (14065S) (Cell Signaling Technology), Flotillin-1 Antibody (3253S) (Cell Signaling Technology) and secondary goat anti-rabbit IgG-HRP (sc-2030) (Santa Cruz Biotechnology) or goat anti-mouse IgG HRP (ThermoFisher). Chemiluminescent detection was performed by using SuperSignal West Pico PLUS chemiluminescent substrate (ThermoFisher) according to the manufacturer's instructions.
Assays were performed in 3 biological replicates. Each replicate involved the analysis of 4 to 5 conditions side-by-side. Western blots were analyzed using ImageJ^1. The intensity of the protein band in each cleaved bound fraction (palmitoylated protein fraction) was normalized to the intensity of the corresponding input fraction (total protein fraction). The values within individual S 4 replicates were normalized to the control or vehicle condition and reported as means±SD. An unpaired t test was performed to determine the significance between means.

flotillin-2 = target: T2, flotillin-2 (Homo sapiens, UniProt Q14254); assay: Acyl resin-assisted capture detection of flotillin-2 palmitoylation in HeLa cells; format: cell-based; details: 1.25 μmol/10^7 cells, relative to vehicle
T2 construct: we detected the palmitoylation levels of eight known palmitoylated proteins after treatment with 1; endogenous in cells; host or cells: HeLa
T2 sequence (Q14254 1-428): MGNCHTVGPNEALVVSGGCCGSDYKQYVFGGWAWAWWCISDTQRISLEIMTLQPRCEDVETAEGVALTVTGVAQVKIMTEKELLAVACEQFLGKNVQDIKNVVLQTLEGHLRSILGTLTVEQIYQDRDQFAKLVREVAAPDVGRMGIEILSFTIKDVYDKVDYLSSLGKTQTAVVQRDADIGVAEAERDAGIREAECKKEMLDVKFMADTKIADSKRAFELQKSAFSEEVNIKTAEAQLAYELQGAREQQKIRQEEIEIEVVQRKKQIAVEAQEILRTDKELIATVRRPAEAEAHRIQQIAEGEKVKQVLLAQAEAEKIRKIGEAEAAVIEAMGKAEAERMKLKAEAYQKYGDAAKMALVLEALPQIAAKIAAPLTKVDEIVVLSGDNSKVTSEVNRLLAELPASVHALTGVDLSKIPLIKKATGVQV
Procedure: HeLa cells were grown to confluency in 10 cm plates. Stock solutions of compounds were prepared in DMSO as before and diluted to the final indicated concentration in 5.5 mL of OptiMEM media before adding to cells. Cells were incubated at 37° C. for 20 min and then media removed and 3 mL of HBSS added to each plate. Cells were detached using a cell scraper, pelleted by centrifugation at 1,000 rcf for 5 min and the pellet processed using a CAPTUREome S-Palmitoylated Protein Kit (Badrilla, UK) according to the manufacturer's protocol. Samples were resolved by electrophoresis using 4-20% SDS-polyacrylamide gels (Bio-Rad) under denaturing and reducing conditions. Proteins were then electrotransferred to a PVDF membrane (Bio-Rad). […]
Assays were performed in 3 biological replicates. […] Western blots were analyzed using ImageJ^1. […]

AKT1 (pS473) = assay: Detection of AKT1 phosphorylation in HeLa cells (western blot); format: cell-based; details: 1.25 μmol/10^7 cells, 20 min, then EGF 5 min
Procedure: (§1) HeLa cells were grown to confluency in 6 cm plates and then serum starved overnight in OptiMEM. Stock solutions of compounds were prepared in DMSO as before and diluted to the final indicated concentration in 2 mL of OptiMEM media before adding to cells. Cells were incubated at 37° C. for 20 min and then stimulated with […] EGF (ThermoFisher) for 5 min. Media was then removed and cells washed once with HBSS. 1.5 mL of HBSS was then added to each plate. Cells were detached using a cell scraper, pelleted by centrifugation at 1,000 rcf for 5 min and the pellet processed using MPER™ Mammalian Protein Extraction Reagent (ThermoFisher) with the addition of Halt Protease Inhibitor Cocktail (ThermoFisher) and 1 mM sodium orthovanadate. Samples were resolved by electrophoresis using 4-20% SDS-polyacrylamide gels (Bio-Rad) under denaturing and reducing conditions. Proteins were then electrotransferred to a PVDF membrane (Bio-Rad). The membrane was blocked with 3% BSA and then subjected to immunoblot analysis using AKT/MAPK Signaling Pathway Antibody Cocktail (ab151279) (Abcam) and secondary goat anti-rabbit IgG-HRP (sc-2030) (Santa Cruz Biotechnology). […]
(§2) Assays were performed in 3 biological replicates. Western blots were analyzed using ImageJl. […]

ERK1/2 (pY204/pY187) [1] = assay: Detection of ERK1/2 phosphorylation in HeLa cells (western blot); format: cell-based; details: 1.25 μmol/10^7 cells, 20 min, then EGF 5 min
Procedure: as §1, §2

ERK1/2 (pY204/pY187) [2] = assay: Detection of ERK1/2 phosphorylation in T24 cells (western blot); format: cell-based, human; details: T24 cells (oncogenic HRas mutation), 1.25 μmol/10^7 cells, 1 h
Procedure: T24 cells were grown to confluency in 6 cm plates. Stock solutions of compounds were prepared in DMSO as before and diluted to the final indicated concentration in 2 mL of OptiMEM media before adding to cells. Cells were incubated at 37° C. for 1 h and then media removed and 1.5 mL of HBSS added to each plate. Cells were detached using a cell scraper, pelleted by centrifugation at 1,000 rcf for 5 min and the pellet processed using MPER™ Mammalian Protein Extraction Reagent (ThermoFisher) with the addition of Halt Protease Inhibitor Cocktail (ThermoFisher) and 1 mM sodium orthovanadate. Samples were resolved by electrophoresis using 4-20% SDS-polyacrylamide gels (Bio-Rad) under denaturing and reducing conditions. Proteins were then electrotransferred to a PVDF membrane (Bio-Rad). The membrane was blocked with 3% BSA and then subjected to immunoblot analysis using AKT/MAPK Signaling Pathway Antibody Cocktail (ab151279) (Abcam) and secondary goat anti-rabbit IgG-HRP (sc-2030) (Santa Cruz Biotechnology). Chemiluminescent detection was performed by using SuperSignal West Pico PLUS chemiluminescent substrate (ThermoFisher) according to the manufacturer's instructions.
Assays were performed in 3 biological replicates. Western blots were analyzed using ImageJl. The intensity of the protein band in each condition was normalized to the intensity of the corresponding loading control (Rab11). […]

T1 sequence (P01112 whole entry): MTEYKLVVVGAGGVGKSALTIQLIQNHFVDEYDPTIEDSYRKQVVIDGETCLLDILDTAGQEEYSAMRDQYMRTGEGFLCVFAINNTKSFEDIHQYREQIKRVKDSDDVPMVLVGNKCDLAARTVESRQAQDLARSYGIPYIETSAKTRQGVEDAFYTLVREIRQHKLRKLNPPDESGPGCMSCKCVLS

CCCCCCCCNC(=O)[C@@H](N)CS [compound 1, H2N-L-Cys-Oct]
reduction of palmitoylation level of HRas (endogenous HRas; 1.25 μmol/10^7 cells, relative to vehicle): > 80%
depalmitoylation of HRas in the presence of palmostatin B (PB) (endogenous HRas; 1.25 μmol/10^7 cells, with APT-1/2 inhibitor PB): efficiently depalmitoylated HRas
HRas palmitoylation over a range of concentrations (endogenous HRas; 0.31-1.25 μmol/10^7 cells, 20 min): decreased in a dose-dependent manner
depalmitoylation of HRas (endogenous HRas; 20 min, 1 at 1.25 μmol/10^7 cells, same experiments with TCEP alone or compound 2): near complete depalmitoylation
reduction of palmitoylation level of flotillin-2 (flotillin-2): 19-40%
AKT1 phosphorylation after EGF stimulation (AKT1 (pS473)): significant decrease
ERK1/2 phosphorylation after EGF stimulation (ERK1/2 (pY204/pY187) [1]): but not ERK1/2 phosphorylation
ERK1/2 phosphorylation (ERK1/2 (pY204/pY187) [2]): near complete abrogation
